# Source: US20120231482A1, “METHOD, KIT OR DIAGNOSTIC FOR THE DETECTION OF REAGENTS WHICH INDUCE ALTERED CONTRACTILITY” (THE JOHNS HOPKINS UNIVERSITY, priority 2009, published 2012)
# Experiments:
# [1] = tested on: rat cardiac muscle; assay: Force and [Ca2+]i measurements in cardiac trabeculae; type: cell-based; conditions: control compounds (NCA hydrolysis products, non-HNO-releasing analogue); data not shown
# Experimental: Force and [Ca^2+]i Measurements in Cardiac Trabeculae.
# Rat hearts were exposed via midsternotomy after the animals were anesthetized with intraperitoneal injection of pentobarbital (100 mg/kg), and were then rapidly excised and aorta cannulated. The hearts were perfused retrogradely (˜15 ml/min) with high K^+ Krebs-Henseleit (H-K) solution equilibrated with 95% O2 and 5% CO2. Trabeculae were quickly dissected from the right ventricles of the hearts and mounted between a force transducer and a motor arm. The muscles were superfused with K-H solution at a rate of ˜10 ml/min and stimulated at 0.5 Hz. Force was measured using a force transducer system (SI, Germany) and expressed in mN/mm^2. Sarcomere length was measured by laser diffraction. Fura-2 potassium salt was microinjected iontophoretically into one cell and allowed to spread throughout the whole muscle (via gap junctions). The epifluorescence of fura-2 was measured by exciting at 380 and 340 nm. The fluorescent light was collected at 510 nm by a photomultiplier tube (R1527, Hamamatsu). [Ca^2+]i was given by (after subtraction of the autofluorescence): [Ca^2+]i=K′d(R-Rmin)/(Rmax-R), where R is the observed ratio of fluorescence (340/380), K′d is the apparent dissociation constant, Rmax is the ratio of 340 nm/380 nm at saturating [Ca^2+], and Rmin is the ratio of 340 nm/380 nm at zero [Ca^2+]. The values of K′d, Rmax, and Rmin were determined by in vivo calibrations. Tetanization of the trabecula was achieved by addition of ryanodine (1.0 μmol/L) and by increasing the stimulus rate to 10 Hz briefly (˜3 sec) to obtain steady-state force-[Ca^2+] relations. Different levels of tetanized force will be obtained by increasing [Ca^2+] in the perfusate (up to 20-25 mmol/L). The data will be fitted with the Hill equation: F=Fmax[Ca^2+]in/(K1/2n+[Ca^2+]in), where Fmax is the maximal force. K1/2 is [Ca^2+]i at half Fmax, and n is the Hill coefficient.
# 1-nitrosocyclohexylacetate (NCA) is a new and mechanistically unique HNO donor that has been recently synthesized.
# [2] = tested on: skinned trabeculae; assay: Force-[Ca2+] relation in skinned trabeculae; type: cell-based, rat; conditions: skinned muscles; DTT (5 mM) for 10 min after NCA
# Experimental: FIG. 2. […] (A) Steady-state force-[Ca^2+]i relationship in intact trabeculae before and after NCA (20 μmol/L). n=5. See text for details. (B) Force-[Ca^2+] relation in skinned trabeculae before and after NCA (n=6). […] The muscles were treated with DTT (5 mM) for 10 min after 1st force-[Ca^2+] was obtained in the presence of NCA alone, and a second force-[Ca^2+] relation was obtained in the presence of NCA+DTT. n=3. (D) For comparison, steady-state force-[Ca^2+]i relationship in intact trabeculae before and after AS (500 μmol/L). n=5.
# To further test this hypothesis, steady-state force-[Ca^2+]i relations were obtained by tetanizing the muscles in the presence of ryanodine.
Compound,effects in cardiac muscles [1],increases in myofilament Ca2+ sensitivity caused by HNO [2]
O=C1CCCCC1 [cyclohexanone],did not produce any appreciable effects,
O[C@@H](CS)[C@@H](O)CS [DTT],,completely abolished
CC(C)(C)C(=O)OC1(N=O)CCCCC1 [1-nitrosocyclohexyl pivalate],had no effects,
